According to PubChem BioAssay AID1963827 (Molecular Pharmacology Branch, DTP, NCI, 2024):

System: 994946-033-R-J1-PDC complex spheroid viability
Assay: Anticancer human tumor 994946-033-R-J1-PDC patient-derived melanoma cell line growth inhibition [POLQ]
Settings: for IC50: curve of first compound; for viability, T/C: stronger effect = lower value
How it was run: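 Growth inhibition in 3D: complex spheroids (tumor PDC, HUVEC, MSC) treated with POLQ inhibitor combinations; where Cmax unknown, highest tested concentration 10 microM, except SN-38 at 1 microM.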

[1] = second compound 0.0316 µM, first compound 0.0316 µM
[2] = second compound 0.0316 µM, first compound 0.1 µM
[3] = second compound 0.0316 µM, first compound 0.316 µM
[4] = second compound 0.0316 µM, first compound 1 µM
[5] = second compound 0.0316 µM, first compound 3.16 µM
[6] = second compound 0.0316 µM, first compound 10 µM
[7] = second compound 0.1 µM, first compound 0.0316 µM
[8] = second compound 0.1 µM, first compound 0.1 µM
[9] = second compound 0.1 µM, first compound 0.316 µM
[10] = second compound 0.1 µM, first compound 1 µM
[11] = second compound 0.1 µM, first compound 3.16 µM
[12] = second compound 0.1 µM, first compound 10 µM
[13] = second compound 0.316 µM, first compound 0.0316 µM
[14] = second compound 0.316 µM, first compound 0.1 µM
[15] = second compound 0.316 µM, first compound 0.316 µM
[16] = second compound 0.316 µM, first compound 1 µM
[17] = second compound 0.316 µM, first compound 3.16 µM
[18] = second compound 0.316 µM, first compound 10 µM
[19] = second compound 1 µM, first compound 0.0316 µM
[20] = second compound 1 µM, first compound 0.1 µM
[21] = second compound 1 µM, first compound 0.316 µM
[22] = second compound 1 µM, first compound 1 µM
[23] = second compound 1 µM, first compound 3.16 µM
[24] = second compound 1 µM, first compound 10 µM
[25] = second compound 3.16 µM, first compound 0.0316 µM
[26] = second compound 3.16 µM, first compound 0.1 µM
[27] = second compound 3.16 µM, first compound 0.316 µM
[28] = second compound 3.16 µM, first compound 1 µM
[29] = second compound 3.16 µM, first compound 3.16 µM
[30] = second compound 3.16 µM, first compound 10 µM
[31] = second compound 10 µM, first compound 0.0316 µM
[32] = second compound 10 µM, first compound 0.1 µM
[33] = second compound 10 µM, first compound 0.316 µM
[34] = second compound 10 µM, first compound 1 µM
[35] = second compound 10 µM, first compound 3.16 µM
[36] = second compound 10 µM, first compound 10 µM
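Further: spheroids exposed to drugs for 7 days.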
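Wherever viability, T/C is given: 100% = DMSO vehicle treated spheroids.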

`CC(=O)O[C@H]1C(=O)[C@@]2(C)[C@H]([C@H](OC(=O)c3ccccc3)[C@]3(O)C[C@H](OC(=O)[C@H](O)[C@@H](NC(=O)c4ccccc4)c4ccccc4)C(C)=C1C3(C)C)[C@]1(OC(C)=O)CO[C@@H]1C[C@@H]2O` + COC1C(OC(N)=O)C(O)C(Oc2ccc3c(O)c(NC(=O)c4ccc(O)c(CC=C(C)C)c4)c(=O)oc3c2C)OC1(C)C gave an IC50 (second compound 0.0316 µM) of less than 0.00949 µM, an IC50 (second compound 0.1 µM) of less than 0.00949 µM and an IC50 (second compound 0.316 µM) of less than 0.00949 µM. For the same compound, the IC50 (second compound 1 µM) was less than 0.00949 µM, the IC50 (second compound 3.16 µM) was less than 0.00949 µM and the IC50 (second compound 10 µM) was less than 0.00949 µM. The viability, T/C (second compound 0.0316 µM, first compound 0.00949 µM) was 23.9%, the viability, T/C (second compound 0.0316 µM, first compound 0.03 µM) was 25.3% and the viability, T/C (second compound 0.0316 µM, first compound 0.0949 µM) was 16.4%. It also gave a viability, T/C (second compound 0.0316 µM, first compound 0.3 µM) of 12.5%, a viability, T/C (second compound 0.0316 µM, first compound 0.949 µM) of 12% and a viability, T/C (second compound 0.0316 µM, first compound 3 µM) of 10.4%. It also gave a viability, T/C (second compound 0.1 µM, first compound 0.00949 µM) of 24.4%, a viability, T/C (second compound 0.1 µM, first compound 0.03 µM) of 20.5% and a viability, T/C (second compound 0.1 µM, first compound 0.0949 µM) of 14.5%. For the same compound, the viability, T/C (second compound 0.1 µM, first compound 0.3 µM) was 11.9%, the viability, T/C (second compound 0.1 µM, first compound 0.949 µM) was 14.2% and the viability, T/C (second compound 0.1 µM, first compound 3 µM) was 9.19%. The viability, T/C (second compound 0.316 µM, first compound 0.00949 µM) was 20.4%, the viability, T/C (second compound 0.316 µM, first compound 0.03 µM) was 23.3% and the viability, T/C (second compound 0.316 µM, first compound 0.0949 µM) was 23.7%. The viability, T/C (second compound 0.316 µM, first compound 0.3 µM) was 17.2%, the viability, T/C (second compound 0.316 µM, first compound 0.949 µM) was 15.4% and the viability, T/C (second compound 0.316 µM, first compound 3 µM) was 14.9%. The viability, T/C (second compound 1 µM, first compound 0.00949 µM) was 22.8%, the viability, T/C (second compound 1 µM, first compound 0.03 µM) was 18% and the viability, T/C (second compound 1 µM, first compound 0.0949 µM) was 17.1%. For the same compound, the viability, T/C (second compound 1 µM, first compound 0.3 µM) was 18.5%, the viability, T/C (second compound 1 µM, first compound 0.949 µM) was 14.7% and the viability, T/C (second compound 1 µM, first compound 3 µM) was 10.9%. For the same compound, the viability, T/C (second compound 3.16 µM, first compound 0.00949 µM) was 23.8%, the viability, T/C (second compound 3.16 µM, first compound 0.03 µM) was 20.4% and the viability, T/C (second compound 3.16 µM, first compound 0.0949 µM) was 19.9%. It also gave a viability, T/C (second compound 3.16 µM, first compound 0.3 µM) of 15.4%, a viability, T/C (second compound 3.16 µM, first compound 0.949 µM) of 15.1% and a viability, T/C (second compound 3.16 µM, first compound 3 µM) of 11.3%. It also gave a viability, T/C (second compound 10 µM, first compound 0.00949 µM) of 21.5%, a viability, T/C (second compound 10 µM, first compound 0.03 µM) of 26% and a viability, T/C (second compound 10 µM, first compound 0.0949 µM) of 16.2%. It also gave a viability, T/C (second compound 10 µM, first compound 0.3 µM) of 12.8%, a viability, T/C (second compound 10 µM, first compound 0.949 µM) of 14.9% and a viability, T/C (second compound 10 µM, first compound 3 µM) of 8.96%.

In the case of `CCCS(=O)(=O)Nc1ccc(F)c(C(=O)c2c[nH]c3ncc(-c4ccc(Cl)cc4)cc23)c1F` + COC1C(OC(N)=O)C(O)C(Oc2ccc3c(O)c(NC(=O)c4ccc(O)c(CC=C(C)C)c4)c(=O)oc3c2C)OC1(C)C, the IC50 (second compound 0.0316 µM) is reported as 6.68 µM, the IC50 (second compound 0.1 µM) is reported as 5.99 µM and the IC50 (second compound 0.316 µM) is reported as 5.14 µM. It also gave an IC50 (second compound 1 µM) of 6.12 µM, an IC50 (second compound 3.16 µM) of 4.85 µM and an IC50 (second compound 10 µM) of 6.15 µM. For the same compound, the viability, T/C [1] was 128%, the viability, T/C [2] was 113% and the viability, T/C [3] was 99.6%. It also gave a viability, T/C [4] of 93.4%, a viability, T/C [5] of 109% and a viability, T/C [6] of 18.3%. The viability, T/C [7] was 102%, the viability, T/C [8] was 98.7% and the viability, T/C [9] was 89.3%. It also gave a viability, T/C [10] of 105%, a viability, T/C [11] of 106% and a viability, T/C [12] of 9.61%. It also gave a viability, T/C [13] of 104%, a viability, T/C [14] of 101% and a viability, T/C [15] of 97.3%. It also gave a viability, T/C [16] of 121%, a viability, T/C [17] of 75.3% and a viability, T/C [18] of 15.4%. It also gave a viability, T/C [19] of 90.5%, a viability, T/C [20] of 93.4% and a viability, T/C [21] of 90.4%. The viability, T/C [22] was 108%, the viability, T/C [23] was 91.3% and the viability, T/C [24] was 19.2%. It also gave a viability, T/C [25] of 113%, a viability, T/C [26] of 111% and a viability, T/C [27] of 104%. The viability, T/C [28] was 93.8%, the viability, T/C [29] was 67.5% and the viability, T/C [30] was 20.2%. The viability, T/C [31] was 102%, the viability, T/C [32] was 107% and the viability, T/C [33] was 112%. It also gave a viability, T/C [34] of 94.2%, a viability, T/C [35] of 99.9% and a viability, T/C [36] of 13.5%.

With `C=CC(=O)N1CCN(c2nc(=O)n(-c3c(C)ccnc3C(C)C)c3nc(-c4c(O)cccc4F)c(F)cc23)C(C)C1` (stereo unspecified) + Nc1ccc(C#CCN(C(=O)Cc2ncc(C(F)(F)F)cc2C(F)(F)F)c2ccc(F)cc2)nn1 the IC50 (second compound 0.0316 µM) was greater than 10 µM, the IC50 (second compound 0.1 µM) was greater than 10 µM and the IC50 (second compound 0.316 µM) was greater than 10 µM. It also gave an IC50 (second compound 1 µM) greater than 10 µM, an IC50 (second compound 3.16 µM) greater than 10 µM and an IC50 (second compound 10 µM) greater than 10 µM. It also gave a viability, T/C [1] of 92.1%, a viability, T/C [2] of 94.9% and a viability, T/C [3] of 73.3%. The viability, T/C [4] was 119%, the viability, T/C [5] was 130% and the viability, T/C [6] was 86.9%. It also gave a viability, T/C [7] of 102%, a viability, T/C [8] of 108% and a viability, T/C [9] of 75.2%. For the same compound, the viability, T/C [10] was 119%, the viability, T/C [11] was 74.6% and the viability, T/C [12] was 70.7%. It also gave a viability, T/C [13] of 104%, a viability, T/C [14] of 52.8% and a viability, T/C [15] of 112%. For the same compound, the viability, T/C [16] was 110%, the viability, T/C [17] was 103% and the viability, T/C [18] was 73.7%. For the same compound, the viability, T/C [19] was 94.2%, the viability, T/C [20] was 125% and the viability, T/C [21] was 108%. It also gave a viability, T/C [22] of 102%, a viability, T/C [23] of 130% and a viability, T/C [24] of 122%. It also gave a viability, T/C [25] of 80.7%, a viability, T/C [26] of 112% and a viability, T/C [27] of 83.8%. The viability, T/C [28] was 119%, the viability, T/C [29] was 118% and the viability, T/C [30] was 98.4%. It also gave a viability, T/C [31] of 110%, a viability, T/C [32] of 117% and a viability, T/C [33] of 110%. It also gave a viability, T/C [34] of 105%, a viability, T/C [35] of 120% and a viability, T/C [36] of 116%.
